Biological target: Bifunctional 3'-5' exonuclease/ATP-dependent helicase WRN (Homo sapiens, UniProt Q14191)
Assay: Inhibition of WRN helicase (500 to 942 residues)(unknown origin) using fluor/quencher-labeled forked double-stranded DNA substrate assessed as decrease in helicase unwinding activity preincubated for 1 hr followed by substrate addition measured after 1 hr in presence of ATP by fluorescence based assay

Sequence of Bifunctional 3'-5' exonuclease/ATP-dependent helicase WRN (Q14191 whole entry, the tested form may be a part): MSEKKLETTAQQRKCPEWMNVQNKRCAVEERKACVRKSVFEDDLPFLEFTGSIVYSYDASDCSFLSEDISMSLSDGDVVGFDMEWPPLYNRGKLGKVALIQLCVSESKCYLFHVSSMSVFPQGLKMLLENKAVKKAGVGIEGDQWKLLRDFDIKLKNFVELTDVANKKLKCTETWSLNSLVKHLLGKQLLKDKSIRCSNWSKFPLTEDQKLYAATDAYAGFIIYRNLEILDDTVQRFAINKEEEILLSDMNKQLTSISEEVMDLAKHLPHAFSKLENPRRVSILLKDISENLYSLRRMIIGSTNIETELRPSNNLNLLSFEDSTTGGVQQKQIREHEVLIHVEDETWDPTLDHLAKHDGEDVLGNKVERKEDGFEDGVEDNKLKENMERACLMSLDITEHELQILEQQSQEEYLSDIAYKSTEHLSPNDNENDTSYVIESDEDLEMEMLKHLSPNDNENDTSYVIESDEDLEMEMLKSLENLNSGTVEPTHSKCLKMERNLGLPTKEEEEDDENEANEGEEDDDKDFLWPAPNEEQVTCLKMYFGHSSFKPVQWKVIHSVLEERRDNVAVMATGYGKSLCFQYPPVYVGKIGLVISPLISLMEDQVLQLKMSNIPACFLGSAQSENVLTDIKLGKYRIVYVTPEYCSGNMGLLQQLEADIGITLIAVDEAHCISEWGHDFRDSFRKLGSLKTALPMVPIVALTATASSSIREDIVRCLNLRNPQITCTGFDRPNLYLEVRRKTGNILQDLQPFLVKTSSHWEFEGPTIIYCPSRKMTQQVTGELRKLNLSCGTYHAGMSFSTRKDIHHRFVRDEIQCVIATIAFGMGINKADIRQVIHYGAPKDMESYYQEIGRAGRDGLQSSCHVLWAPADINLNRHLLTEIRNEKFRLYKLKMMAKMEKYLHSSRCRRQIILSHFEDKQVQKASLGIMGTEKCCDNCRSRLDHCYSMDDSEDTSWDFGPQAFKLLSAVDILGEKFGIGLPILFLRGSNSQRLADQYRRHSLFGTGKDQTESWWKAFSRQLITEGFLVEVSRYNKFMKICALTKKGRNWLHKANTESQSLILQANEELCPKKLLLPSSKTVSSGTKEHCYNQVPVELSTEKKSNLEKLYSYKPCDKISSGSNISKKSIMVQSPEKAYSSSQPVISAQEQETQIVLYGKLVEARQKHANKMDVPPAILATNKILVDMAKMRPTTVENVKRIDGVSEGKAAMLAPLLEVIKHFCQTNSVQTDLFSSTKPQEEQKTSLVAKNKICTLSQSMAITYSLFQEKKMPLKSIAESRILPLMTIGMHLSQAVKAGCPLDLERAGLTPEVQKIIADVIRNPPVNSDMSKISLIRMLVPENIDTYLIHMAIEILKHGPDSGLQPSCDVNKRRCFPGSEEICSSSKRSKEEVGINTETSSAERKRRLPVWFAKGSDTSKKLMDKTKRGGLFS

| IC50 [nM] | SMILES |
| --- | --- |
| 1.9 | CC1CC2(CCN(C(=O)c3ncccc3O)CC2)c2c1n(CC(=O)Nc1ccc(C(F)(F)F)cc1)c1nc(C3=CCOCC3)nn1c2=O (configuration not stated) |
| 2 | CC(=O)N1CC=C(c2nc3n(CC(=O)Nc4ccc(C(F)(F)F)cc4Cl)c4c(c(=O)n3n2)C2(CCN(C(=O)c3ncccc3O)CC2)CC4C)CC1 (configuration not stated) |

From ChEMBL document CHEMBL6178006, “Novel Spirocyclic WRN Helicase Inhibitors for Treating Cancer” (ACS Med Chem Lett, 2025)
